PubChem BioAssay AID1963434 (Molecular Pharmacology Branch, DTP, NCI, 2024)

Tested on: 755483-174-R-J1-PDC complex spheroid growth, percent test/control
Assay: Anticancer human tumor 755483-174-R-J1-PDC patient-derived rhabdomyosarcoma cell line growth inhibition [Asc]
Conditions: for IC50: curve of first compound; for viability, T/C: stronger effect = lower value
Method: Multicellular complex tumor spheroid response to apoptosis pathway targeting inhibitors Alrizomadlin, Pelcitoclax, and Dasminapant in combination with a variety of drugs and investigational agents in selected tumor cell lines
The MDM2 inhibitor alrizomadlin, the Bcl-2/Bcl-xL inhibitor pelcitoclax, and the IAPs inhibitor dasminapant were evaluated both individually and in combination with standard of care and investigational anticancer small molecules within a complex spheroid model of solid tumors. . Complex spheroids include a stromal component modeled by human endothelial cells (HUVEC) and fibroblasts modeled by human mesenchymal stem cells (MSCs). The concentration ranges selected for each drug and investigational agent were based upon clinically achievable concentrations if the clinical Cmax of the agent was known.
Compounds. The drugs and investigational agents: alrizomadlin (APG-115; NSC831270), pelcitoclax (APG-1252; NSC835773), dasminapant (APG-1387;NSC834197), TAK-243 (NSC785004), copanlisib (NSC809693), olaparib (NSC753686), talazoparib (NSC767125), cobimetinib (NSC 768068), eltanexor (KPT-8602, NSC 794443), abemaciclib (NSC 768073), sotorasib (NSC818433), adagrasib (NSC 831453), MRTX-1133 (NSC 836407), Iadademestat (ORY1001, NSC 806812), and RMC-4630 (NSC839698), were obtained from the NCI Developmental Therapeutics Program Chemical Repository. The FDA-approved anticancer drug set is available from the Developmental Therapeutics Program at https://dtp.cancer.gov/organization/dscb/obtaining/available plates.htm. […] The stock solutions were prepared in dimethyl sulfoxide (DMSO, Sigma-Aldrich, St. Louis, MO, cat. D2650) at 800-fold the tested concentration and stored at -70 degrees C prior to their use. All drugs and investigational agents were tested over a range starting from a high concentration at or near the clinical Cmax and decreasing in half-log increments. If the clinical Cmax for an agent had not been determined, the highest concentration tested was 10 microM.
The patient-derived cancer (PDC) cell lines include five colon adenocarcinomas: 186277-243-T-J2-PDC, 616215-338-R-J1-PDC, 439559-082-T-J2-PDC, 463943-066-T-J2-PDC, and 519858-162-T-J1-PDC; three pancreatic carcinomas: 323965-272-R-J2-PDC, 521955-158-R6-J3-PDC, and 521955-158-R2-J5-PDC; two uterine sarcomas: 327498-152-R-J2-PDC and 993429-296-R-J1-PDC; two rhabdomyosarcomas: 755483-174-R-J1-PDC and 772245-204-R-J1-PDC; two soft tissue sarcomas: 126254-015-R-J1-PDC and 494315-158-R-J1-PDC; two malignant fibrous histiocytomas: 317291-083-R-J1-PDC and 596521-263-R-J1-PDC; two breast carcinomas: 171881-019-R-J1-PDC and 885512-296-R-J2-PDC; and one ovarian carcinoma: 6556581-035-R-J-PDC were obtained from the NCI PDMR, (https://pdmr.cancer.gov). The established cell lines HSSY-2 synovial sarcoma (RRID:CVCL 8719), SYO-1 synovial sarcoma (RRID:CVCL_7146), MPNST malignant peripheral neural sheath tumor were obtained from the Sloan Kettering Institute. The following established cell lines were purchased from the American Type Culture Collection (ATCC, Manassas, VA), Sor the received from the NCI repository:, PANC-1 pancreatic carcinoma (CRL-1469, RRID:CVCL_0480), OVCAR-5 ovarian carcinoma (RRID:CVCL_1628), OVCAR-8 ovarian carcinoma (RRID:CVCL_1629), , MCF-7 breast carcinoma (CRL-12584, RRID:CVCL_0031), MDA-MB-231 breast carcinoma (CRL-12532, RRID:CVCL_0062), NCI-H1876 small cell lung carcinoma (CRL-5902, RRID:CVCL_1503), NCI-H510A small cell lung carcinoma (HTB-184, RRID:CVCL_1565), NCI-H1417 (CRL-5869, RRID:CVCL_1469), and NCI-H196 small cell lung carcinoma (CRL-5823, RRID:CVCL_1509). Dr. Peter Houghton (Greehey Children's Cancer Research Institute, University of Texas Health Science Center, San Antonio, TX) provided Rh-18 rhabdomyosarcoma (RRID:CVCL_1659). Pooled donor human umbilical vein endothelial cells (HUVEC, Lonza, cat. CC-2519) and human mesenchymal stem cells (hMSC, Lonza, cat. PT-2501) were purchased from Lonza (Walkersville, MD).
Cell Culture. […]

[1] = second compound 0.03 µM, first compound 0.00316 µM
[2] = second compound 0.03 µM, first compound 0.01 µM
[3] = second compound 0.03 µM, first compound 0.0316 µM
[4] = second compound 0.03 µM, first compound 0.1 µM
[5] = second compound 0.0949 µM, first compound 0.00316 µM
[6] = second compound 0.0949 µM, first compound 0.01 µM
[7] = second compound 0.0949 µM, first compound 0.0316 µM
[8] = second compound 0.0949 µM, first compound 0.1 µM
[9] = second compound 0.3 µM, first compound 0.00316 µM
[10] = second compound 0.3 µM, first compound 0.01 µM
[11] = second compound 0.3 µM, first compound 0.0316 µM
[12] = second compound 0.3 µM, first compound 0.1 µM
[13] = second compound 0.949 µM, first compound 0.00316 µM
[14] = second compound 0.949 µM, first compound 0.01 µM
[15] = second compound 0.949 µM, first compound 0.0316 µM
[16] = second compound 0.949 µM, first compound 0.1 µM
[17] = second compound 3 µM, first compound 0.00316 µM
[18] = second compound 3 µM, first compound 0.01 µM
[19] = second compound 3 µM, first compound 0.0316 µM
[20] = second compound 3 µM, first compound 0.1 µM
[21] = second compound 0.03 µM, first compound 0.316 µM
[22] = second compound 0.03 µM, first compound 1 µM
[23] = second compound 0.0949 µM, first compound 0.316 µM
[24] = second compound 0.0949 µM, first compound 1 µM
[25] = second compound 0.3 µM, first compound 0.316 µM
[26] = second compound 0.3 µM, first compound 1 µM
[27] = second compound 0.949 µM, first compound 0.316 µM
[28] = second compound 0.949 µM, first compound 1 µM
[29] = second compound 3 µM, first compound 0.316 µM
[30] = second compound 3 µM, first compound 1 µM
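Note: spheroids exposed to compounds for seven days before readout.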

| Structure (SMILES) | IC50 (second compound 0.03 µM) [nM] | IC50 (second compound 0.0949 µM) [nM] | IC50 (second compound 0.3 µM) [nM] | IC50 (second compound 0.949 µM) [nM] | IC50 (second compound 3 µM) [nM] | viability, T/C [1] [%] | viability, T/C [2] [%] | viability, T/C [3] [%] | viability, T/C [4] [%] | viability, T/C [5] [%] | viability, T/C [6] [%] | viability, T/C [7] [%] | viability, T/C [8] [%] | viability, T/C [9] [%] | viability, T/C [11] [%] | viability, T/C [12] [%] | viability, T/C [15] [%] | viability, T/C [16] [%] | viability, T/C [19] [%] | viability, T/C [20] [%] | other results |
| --- | --- | --- | --- | --- | --- | --- | --- | --- | --- | --- | --- | --- | --- | --- | --- | --- | --- | --- | --- | --- | --- |
| Cn1ncnc1[C@H]1c2n[nH]c(=O)c3cc(F)cc(c23)N[C@@H]1c1ccc(F)cc1 + CCN1C(C(=O)NC23CCC(C(=O)O)(CC2)CC3)C(c2cccc(Cl)c2F)C2(C(=O)Nc3cc(Cl)ccc32)C12CCCCC2 | 10.9 | 12.4 | 5.94 | 7.98 | 1.56 | 55.6 | 48.1 | 45.9 | 35.1 | 62.7 | 54.1 | 31.1 | 35.5 | 58.6 | 30.4 | 32.6 | 43.1 | 33.8 | 41.6 | 39.3 | viability, T/C (second compound 0.03 µM, first compound 0.000316 µM): 64.6%; viability, T/C (second compound 0.03 µM, first compound 0.001 µM): 64.9%; viability, T/C (second compound 0.0949 µM, first compound 0.000316 µM): 70.1%; viability, T/C (second compound 0.0949 µM, first compound 0.001 µM): 71.2%; viability, T/C (second compound 0.3 µM, first compound 0.000316 µM): 64.9%; viability, T/C (second compound 0.3 µM, first compound 0.001 µM): 55%; viability, T/C [10]: 42.7%; viability, T/C (second compound 0.949 µM, first compound 0.000316 µM): 66.6%; viability, T/C (second compound 0.949 µM, first compound 0.001 µM): 66.2%; viability, T/C [13]: 74%; viability, T/C [14]: 45.4%; viability, T/C (second compound 3 µM, first compound 0.000316 µM): 59.6%; viability, T/C (second compound 3 µM, first compound 0.001 µM): 51.8%; viability, T/C [17]: 45.5%; viability, T/C [18]: 45.5% |
| O=C(c1cc(Cc2n[nH]c(=O)c3ccccc23)ccc1F)N1CCN(C(=O)C2CC2)CC1 + CCN1C(C(=O)NC23CCC(C(=O)O)(CC2)CC3)C(c2cccc(Cl)c2F)C2(C(=O)Nc3cc(Cl)ccc32)C12CCCCC2 | 1700 | 2560 | 1610 | 1570 | 1110 | – | – | 58.3 | 60.6 | – | – | 79.4 | 77 | – | 80.3 | 63 | 86.2 | 69.2 | 71.3 | 70.8 | viability, T/C [21]: 68.3%; viability, T/C [22]: 48.4%; viability, T/C (second compound 0.03 µM, first compound 3.16 µM): 46%; viability, T/C (second compound 0.03 µM, first compound 10 µM): 23.4%; viability, T/C [23]: 72%; viability, T/C [24]: 64.3%; viability, T/C (second compound 0.0949 µM, first compound 3.16 µM): 46.5%; viability, T/C (second compound 0.0949 µM, first compound 10 µM): 26.1%; viability, T/C [25]: 55.8%; viability, T/C [26]: 57.7%; viability, T/C (second compound 0.3 µM, first compound 3.16 µM): 52%; viability, T/C (second compound 0.3 µM, first compound 10 µM): 28.6%; viability, T/C [27]: 66%; viability, T/C [28]: 58.4%; viability, T/C (second compound 0.949 µM, first compound 3.16 µM): 44.2%; viability, T/C (second compound 0.949 µM, first compound 10 µM): 20.9%; viability, T/C [29]: 50%; viability, T/C [30]: 49.5%; viability, T/C (second compound 3 µM, first compound 3.16 µM): 51.4%; viability, T/C (second compound 3 µM, first compound 10 µM): 27.5% |
| O=C(c1ccc(F)c(F)c1Nc1ccc(I)cc1F)N1CC(O)([C@@H]2CCCCN2)C1 + CCN1C(C(=O)NC23CCC(C(=O)O)(CC2)CC3)C(c2cccc(Cl)c2F)C2(C(=O)Nc3cc(Cl)ccc32)C12CCCCC2 | 534 | 338 | 426 | 273 | 329 | 85.3 | 108 | 95.4 | 99.2 | 113 | 124 | 117 | 93.5 | 109 | 102 | 118 | 134 | 121 | 90 | 97.5 | viability, T/C [21]: 78.3%; viability, T/C [22]: 16%; viability, T/C [23]: 53%; viability, T/C [24]: 18.6%; viability, T/C [10]: 109%; viability, T/C [25]: 61%; viability, T/C [26]: 18.2%; viability, T/C [13]: 126%; viability, T/C [14]: 127%; viability, T/C [27]: 39.8%; viability, T/C [28]: 18.3%; viability, T/C [17]: 104%; viability, T/C [18]: 120%; viability, T/C [29]: 50.3%; viability, T/C [30]: 16.4% |
